The numbers were not newly measured in patent US20090030075A1, “Remedy for and Method of Treating Ischemic Cerebral Stroke” (priority 2005, published 2009), which cites them from elsewhere.

For the series, the system named is cerebral infarction lesion. The following applies: FR139317 used together with SUN9216.

For `CC(C)C[C@H](NC(=O)N1CCCCCC1)C(=O)N[C@H](Cc1cn(C)c2ccccc12)C(=O)N[C@H](Cc1ccccn1)C(=O)O` [FR139317], the “activity of inhibiting development of a cerebral infarction lesion” value is “this effect disappears”.
